In ChEMBL document CHEMBL5120845, “Design and synthesis of novel macrolones bridged with linkers from 11,12-positions of macrolides” (Bioorg Med Chem Lett, 2022):
≈ marks a conversion by molar mass, not a printed value.

Columns and labels:
Assay type in all cases: functional
Streptococcus pneumoniae [1] = assay: Antibacterial activity against Streptococcus pneumoniae ATCC 49619 by microbroth dilution method
Haemophilus influenzae = assay: Antibacterial activity against Haemophilus influenzae ATCC 49247 by microbroth dilution method
Staphylococcus aureus [2] = assay: Antibacterial activity against Staphylococcus aureus 15B196 by microbroth dilution method
Streptococcus pyogenes = assay: Antibacterial activity against Streptococcus pyogenes 12-206 by microbroth dilution method
Streptococcus pneumoniae [3] = assay: Antibacterial activity against Streptococcus pneumoniae PU09 by microbroth dilution method
Staphylococcus aureus [4] = assay: Antibacterial activity against Staphylococcus aureus PU32 by microbroth dilution method
Streptococcus pneumoniae [5] = assay: Antibacterial activity against Streptococcus pneumoniae 07P390 by microbroth dilution method

| MIC (Streptococcus pneumoniae [1]) [µg/mL] | MIC (Haemophilus influenzae) [µg/mL] | MIC (Staphylococcus aureus [2]) [µg/mL] | MIC (Streptococcus pyogenes) [µg/mL] | MIC (Streptococcus pneumoniae [3]) [µg/mL] | MIC (Staphylococcus aureus [4]) [µg/mL] | MIC (Streptococcus pneumoniae [5]) [µg/mL] | SMILES |
| --- | --- | --- | --- | --- | --- | --- | --- |
| 0.06 (≈ 0.067 µM) | 32 (≈ 35.7 µM) | 512 (≈ 571 µM) | 2 (≈ 2.23 µM) | 4 (≈ 4.46 µM) | 1 (≈ 1.12 µM) | 64 (≈ 71.4 µM) | CC[C@H]1OC(=O)[C@H](C)C(=O)[C@H](C)[C@@H](O[C@@H]2O[C@H](C)C[C@H](N(C)C)[C@H]2O)[C@](C)(OC)C[C@@H](C)C(=O)[C@H](C)[C@H]2N(CCCCc3ccc4c(c3)c(=O)c(C(=O)O)cn4C3CC3)C(=O)O[C@]12C |
| ≤ 0.008 | 16 (≈ 17.1 µM) | 128 (≈ 137 µM) | 2 (≈ 2.14 µM) | 1 (≈ 1.07 µM) | 4 (≈ 4.28 µM) | 16 (≈ 17.1 µM) | CC[C@H]1OC(=O)[C@H](C)C(=O)[C@H](C)[C@@H](O[C@@H]2O[C@H](C)C[C@H](N(C)C)[C@H]2O)[C@](C)(OC)C[C@@H](C)C(=O)[C@H](C)[C@H]2N(CCCCCC#Cc3ccc4c(=O)c(C(=O)O)cn(C5CC5)c4c3)C(=O)O[C@]12C |
| ≤ 0.008 | 8 (≈ 8.95 µM) | 256 (≈ 286 µM) | 2 (≈ 2.24 µM) | 1 (≈ 1.12 µM) | 0.5 (≈ 0.559 µM) | 32 (≈ 35.8 µM) | CC[C@H]1OC(=O)[C@H](C)C(=O)[C@H](C)[C@@H](O[C@@H]2O[C@H](C)C[C@H](N(C)C)[C@H]2O)[C@](C)(OC)C[C@@H](C)C(=O)[C@H](C)[C@H]2N(CC/C=C\c3ccc4c(c3)c(=O)c(C(=O)O)cn4C3CC3)C(=O)O[C@]12C |
| 0.25 (≈ 0.25 µM) | 32 (≈ 32 µM) | 32 (≈ 32 µM) | 8 (≈ 8 µM) | 2 (≈ 2 µM) | 8 (≈ 8 µM) | 2 (≈ 2 µM) | CC[C@H]1OC(=O)[C@H](C)C(=O)[C@H](C)[C@@H](O[C@@H]2O[C@H](C)C[C@H](N(C)C)[C@H]2O)[C@](C)(OC)C[C@@H](C)C(=O)[C@H](C)[C@H]2N(CCN3CCN(c4c(F)cc5c(=O)c(C(=O)O)cn(C6CC6)c5c4OC)CC3)C(=O)O[C@]12C |
| 0.03 (≈ 0.0331 µM) | 8 (≈ 8.83 µM) | 256 (≈ 283 µM) | 2 (≈ 2.21 µM) | 1 (≈ 1.1 µM) | 4 (≈ 4.41 µM) | 128 (≈ 141 µM) | CC[C@H]1OC(=O)[C@H](C)C(=O)[C@H](C)[C@@H](O[C@@H]2O[C@H](C)C[C@H](N(C)C)[C@H]2O)[C@](C)(OC)C[C@@H](C)C(=O)[C@H](C)[C@H]2N(CCCC#Cc3ccc4c(c3)c(=O)c(C(=O)O)cn4C3CC3)C(=O)O[C@]12C |
| 0.06 (≈ 0.0673 µM) | 32 (≈ 35.9 µM) | 512 (≈ 574 µM) | 4 (≈ 4.48 µM) | 1 (≈ 1.12 µM) | 2 (≈ 2.24 µM) | 256 (≈ 287 µM) | CC[C@H]1OC(=O)[C@H](C)C(=O)[C@H](C)[C@@H](O[C@@H]2O[C@H](C)C[C@H](N(C)C)[C@H]2O)[C@](C)(OC)C[C@@H](C)C(=O)[C@H](C)[C@H]2N(CCC#Cc3ccc4c(c3)c(=O)c(C(=O)O)cn4C3CC3)C(=O)O[C@]12C |
| 0.12 (≈ 0.122 µM) | 128 (≈ 130 µM) | 512 (≈ 521 µM) | 8 (≈ 8.14 µM) | 2 (≈ 2.03 µM) | 2 (≈ 2.03 µM) | 256 (≈ 260 µM) | CC[C@H]1OC(=O)[C@H](C)C(=O)[C@H](C)[C@@H](O[C@@H]2O[C@H](C)C[C@H](N(C)C)[C@H]2O)[C@](C)(OC)C[C@@H](C)C(=O)[C@H](C)[C@H]2N(CCCN3CCN(c4cc5c(cc4F)c(=O)c(C(N)=O)cn5C4CC4)CC3)C(=O)O[C@]12C |
| ≤ 0.008 | 32 (≈ 34.3 µM) | 128 (≈ 137 µM) | 2 (≈ 2.14 µM) | 1 (≈ 1.07 µM) | 8 (≈ 8.56 µM) | 32 (≈ 34.3 µM) | CC[C@H]1OC(=O)[C@H](C)C(=O)[C@H](C)[C@@H](O[C@@H]2O[C@H](C)C[C@H](N(C)C)[C@H]2O)[C@](C)(OC)C[C@@H](C)C(=O)[C@H](C)[C@H]2N(CCCCCC#Cc3ccc4c(c3)c(=O)c(C(=O)O)cn4C3CC3)C(=O)O[C@]12C |
| ≤ 0.008 | 8 (≈ 8.01 µM) | 256 (≈ 256 µM) | 0.5 (≈ 0.501 µM) | 0.5 (≈ 0.501 µM) | 2 (≈ 2 µM) | 2 (≈ 2 µM) | CC[C@H]1OC(=O)[C@H](C)C(=O)[C@H](C)[C@@H](O[C@@H]2O[C@H](C)C[C@H](N(C)C)[C@H]2O)[C@](C)(OC)C[C@@H](C)C(=O)[C@H](C)[C@H]2N(CCCCN3CCN(c4cc5c(cc4F)c(=O)c(C(=O)O)cn5C4CC4)CC3)C(=O)O[C@]12C |
| 0.016 (≈ 0.0174 µM) | 32 (≈ 34.8 µM) | 256 (≈ 278 µM) | 2 (≈ 2.17 µM) | 2 (≈ 2.17 µM) | 2 (≈ 2.17 µM) | 8 (≈ 8.69 µM) | CC[C@H]1OC(=O)[C@H](C)C(=O)[C@H](C)[C@@H](O[C@@H]2O[C@H](C)C[C@H](N(C)C)[C@H]2O)[C@](C)(OC)C[C@@H](C)C(=O)[C@H](C)[C@H]2N(CCCCC#Cc3ccc4c(=O)c(C(=O)O)cn(C5CC5)c4c3)C(=O)O[C@]12C |

| SMILES | MIC (Streptococcus pneumoniae [1]) [µg/mL] | MIC (Haemophilus influenzae) [µg/mL] | MIC (Staphylococcus aureus [2]) [µg/mL] | MIC (Streptococcus pyogenes) [µg/mL] | MIC (Streptococcus pneumoniae [3]) [µg/mL] | MIC (Staphylococcus aureus [4]) [µg/mL] | MIC (Streptococcus pneumoniae [5]) [µg/mL] |
| --- | --- | --- | --- | --- | --- | --- | --- |
| CC[C@H]1OC(=O)[C@H](C)[C@@H](O[C@H]2C[C@@](C)(OC)[C@@H](O)[C@H](C)O2)[C@H](C)[C@@H](O[C@@H]2O[C@H](C)C[C@H](N(C)C)[C@H]2O)[C@](C)(OC)C[C@@H](C)C(=O)[C@H](C)[C@@H](O)[C@]1(C)O [CLARITHROMYCIN] | 0.03 (≈ 0.0401 µM) | 16 (≈ 21.4 µM) | 512 (≈ 685 µM) | 512 (≈ 685 µM) | 8 (≈ 10.7 µM) | 64 (≈ 85.6 µM) | 512 (≈ 685 µM) |
